Measured values as given in PubChem BioAssay (NCI).
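Growth conditions: 96-well plates. Treatment: test compound, 48 hours, 5 concentrations. Analysis: linear interpolation between bracketing concentrations; unreached endpoints set to highest concentration. At the GI50, growth is halved. TGI: concentration producing complete growth inhibition.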

How the values were obtained:
Assay in all cases: NCI tumour cell line growth inhibition, 48 h
[1] = test system: COLO 205 colon
[2] = test system: SW-620 colon
[3] = test system: T-47D breast
[4] = test system: HOP-62 NSCLC
[5] = test system: LOX IMVI melanoma
[6] = test system: NCI-H460 lung
[7] = test system: OVCAR-3 ovarian
[8] = test system: SF-539 CNS
[9] = test system: SK-MEL-28 melanoma
[10] = test system: A549 NSCLC
[11] = test system: NCI-H226 lung
[12] = test system: BT-549 breast
[13] = test system: MCF7 breast
[14] = test system: DU-145 prostate
[15] = test system: KM12 colon
[16] = test system: PC-3 prostate
[17] = test system: NCI/ADR-RES ovarian
[18] = test system: TK-10 renal
[19] = test system: HCT-116 colon
[20] = test system: MDA-MB-231 breast
[21] = test system: OVCAR-4 ovarian
[22] = test system: OVCAR-8 ovarian
[23] = test system: SK-OV-3 ovarian
[24] = test system: MOLT-4 leukemia
[25] = test system: NCI-H23 lung
[26] = test system: SK-MEL-5 melanoma
[27] = test system: SR leukemia
[28] = test system: HCC-2998 colon
[29] = test system: K-562 leukemia
[30] = test system: OVCAR-5 ovarian
[31] = test system: NCI-H522 lung
[32] = test system: HS 578T breast
[33] = test system: ACHN renal
[34] = test system: UACC-62 melanoma
[35] = test system: HT29 colon
[36] = test system: 786-0 renal
[37] = test system: SNB-19 CNS
[38] = test system: HCT-15 colon
[39] = test system: RPMI-8226 leukemia
[40] = test system: SK-MEL-2 melanoma
[41] = test system: RXF 393 renal
[42] = test system: SN12C renal
[43] = test system: IGROV1 ovarian
[44] = test system: UACC-257 melanoma
[45] = test system: MALME-3M melanoma
[46] = test system: A498 renal
[47] = test system: MDA-MB-435
[48] = test system: U251 CNS
[49] = test system: EKVX NSCLC
[50] = test system: SF-295 CNS
[51] = test system: SF-268 CNS
[52] = test system: SNB-75 CNS
[53] = test system: UO-31 renal
[54] = test system: CCRF-CEM leukemia
[55] = test system: HL-60(TB) leukemia
[56] = test system: HOP-92 NSCLC
[57] = test system: M14 melanoma
[58] = test system: CAKI-1 renal

CN(C)c1ccc(N2Cc3ccccc3OC3=C2C(=O)c2c(O)ccc(O)c2C3=O)cn1
GI50 [1]: 0.174 µM | TGI [1]: 0.38 µM | GI50 [2]: 0.178 µM | TGI [2]: 0.586 µM | GI50 [3]: 0.258 µM | TGI [3]: 1.27 µM | GI50 [4]: 1.56 µM | TGI [4]: 3.86 µM | GI50 [5]: 0.16 µM | TGI [5]: 0.48 µM | GI50 [6]: 1.28 µM | TGI [6]: 3.67 µM | GI50 [7]: 0.233 µM | TGI [7]: 0.695 µM | GI50 [8]: 0.225 µM | TGI [8]: 0.602 µM | GI50 [9]: 0.275 µM | TGI [9]: 0.762 µM | GI50 [10]: 2.32 µM | TGI [10]: 6.03 µM | GI50 [11]: 0.854 µM | TGI [11]: 3.66 µM | GI50 [12]: 0.195 µM | TGI [12]: 0.507 µM | GI50 [13]: 0.15 µM | TGI [13]: 0.456 µM | GI50 [14]: 0.223 µM | TGI [14]: 0.51 µM | GI50 [15]: 1.03 µM | TGI [15]: 3.08 µM | GI50 [16]: 0.221 µM | TGI [16]: 0.867 µM | GI50 [17]: 0.284 µM | GI50 [18]: 0.348 µM | TGI [18]: 0.908 µM | GI50 [19]: 0.124 µM | TGI [19]: 0.288 µM | GI50 [20]: 0.234 µM | TGI [20]: 0.745 µM | GI50 [21]: 0.33 µM | TGI [21]: 1.29 µM | GI50 [22]: 0.268 µM | TGI [22]: 1.26 µM | GI50 [23]: 3.05 µM | TGI [23]: 11.6 µM | GI50 [24]: 0.112 µM | TGI [24]: 0.843 µM | GI50 [25]: 0.277 µM | TGI [25]: 0.927 µM | GI50 [26]: 0.722 µM | TGI [26]: 2.01 µM | GI50 [27]: 0.127 µM | TGI [27]: > 100 µM | GI50 [28]: 1.18 µM | TGI [28]: 2.58 µM | GI50 [29]: 0.177 µM | TGI [29]: 1.58 µM | GI50 [30]: 0.51 µM | TGI [30]: 1.56 µM | GI50 [31]: 0.0535 µM | TGI [31]: 0.217 µM | GI50 [32]: 0.444 µM | TGI [32]: 26.1 µM | GI50 [33]: 0.158 µM | TGI [33]: 0.698 µM | GI50 [34]: 0.211 µM | TGI [34]: 0.638 µM | GI50 [35]: 0.232 µM | TGI [35]: 0.578 µM | GI50 [36]: 0.204 µM | TGI [36]: 0.423 µM | GI50 [37]: 0.563 µM | TGI [37]: 2.24 µM | GI50 [38]: 0.178 µM | TGI [38]: 0.502 µM | GI50 [39]: 0.235 µM | TGI [39]: 0.797 µM | GI50 [40]: 0.541 µM | TGI [40]: 1.49 µM | GI50 [41]: 0.152 µM | TGI [41]: 0.318 µM | GI50 [42]: 0.261 µM | TGI [42]: 1.03 µM | GI50 [43]: 0.28 µM | TGI [43]: 1 µM | GI50 [44]: 0.311 µM | TGI [44]: 1.14 µM | GI50 [45]: 0.218 µM | TGI [45]: 0.495 µM | GI50 [46]: 2.15 µM | TGI [46]: 5.8 µM | GI50 [47]: 0.237 µM | TGI [47]: 0.544 µM | GI50 [48]: 0.311 µM | TGI [48]: 1.2 µM | GI50 [49]: 0.242 µM | TGI [49]: 1.21 µM | GI50 [50]: 1.8 µM | TGI [50]: 4.32 µM | GI50 [51]: 0.37 µM | TGI [51]: 1.59 µM | GI50 [52]: 0.769 µM | TGI [52]: 6.93 µM | GI50 [53]: 0.135 µM | TGI [53]: 0.351 µM | GI50 [54]: 0.102 µM | TGI [54]: 0.815 µM | GI50 [55]: 0.147 µM | TGI [55]: 0.538 µM | GI50 [56]: 0.2 µM | TGI [56]: 0.467 µM | GI50 [57]: 0.241 µM | TGI [57]: 0.713 µM

CC(C)=CCC[C@H](C)[C@@H]1CC[C@]2(C)C3CC[C@]4(OC4(C)C)C(CCCO)[C@]3(C)CC[C@@]12C (stereo partly drawn)
GI50 [1]: 31.5 µM | TGI [1]: > 100 µM | GI50 [2]: 28 µM | TGI [2]: 64.8 µM | GI50 [3]: 17.4 µM | TGI [3]: 45.6 µM | GI50 [4]: 20.8 µM | TGI [4]: 44.4 µM | GI50 [5]: 0.18 µM | TGI [5]: 16.5 µM | GI50 [6]: 23.7 µM | TGI [6]: 70.3 µM | GI50 [7]: 26.7 µM | TGI [7]: 52.8 µM | GI50 [8]: 23.6 µM | TGI [8]: 50.1 µM | GI50 [9]: 23.9 µM | TGI [9]: 58.5 µM | GI50 [10]: 37.7 µM | TGI [10]: > 100 µM | GI50 [11]: 10 µM | TGI [11]: 57.4 µM | GI50 [12]: 26 µM | TGI [12]: 51.7 µM | GI50 [13]: 18.1 µM | TGI [13]: 43.6 µM | GI50 [14]: 32.9 µM | TGI [14]: > 100 µM | GI50 [15]: 22.5 µM | TGI [15]: 59.5 µM | GI50 [16]: 18.2 µM | TGI [16]: 41.1 µM | GI50 [17]: 23.5 µM | TGI [17]: 59.2 µM | GI50 [18]: 17.5 µM | TGI [18]: 38.2 µM | GI50 [19]: 29 µM | TGI [19]: > 100 µM | GI50 [20]: 20.5 µM | TGI [20]: 43.3 µM | GI50 [21]: 25.3 µM | TGI [21]: 59 µM | GI50 [22]: 37.7 µM | TGI [22]: > 100 µM | GI50 [24]: 18.2 µM | TGI [24]: 44.6 µM | GI50 [25]: 18.7 µM | TGI [25]: 40.2 µM | GI50 [26]: 22.7 µM | TGI [26]: 42.9 µM | GI50 [27]: 11.2 µM | TGI [27]: 28.1 µM | GI50 [28]: 7.75 µM | TGI [28]: 22.5 µM | GI50 [29]: 25.3 µM | TGI [29]: 73.3 µM | GI50 [30]: 21 µM | TGI [30]: 47.1 µM | GI50 [31]: 32.4 µM | TGI [31]: > 100 µM | GI50 [32]: 24.4 µM | TGI [32]: 58.5 µM | GI50 [33]: 13.7 µM | TGI [33]: 32.4 µM | GI50 [34]: 13.6 µM | TGI [34]: 30.4 µM | GI50 [35]: 34 µM | TGI [35]: > 100 µM | GI50 [36]: 22.4 µM | TGI [36]: 48.5 µM | GI50 [37]: 24 µM | TGI [37]: 62.3 µM | GI50 [38]: 26.5 µM | TGI [38]: > 100 µM | GI50 [39]: 33.6 µM | TGI [39]: > 100 µM | GI50 [41]: 18.3 µM | TGI [41]: 37.6 µM | GI50 [43]: 81.7 µM | TGI [43]: > 100 µM | GI50 [44]: 24.1 µM | TGI [44]: 59.9 µM | GI50 [45]: 27.3 µM | TGI [45]: 54.6 µM | GI50 [46]: 20.1 µM | TGI [46]: 37.2 µM | GI50 [47]: 22.6 µM | TGI [47]: 48.8 µM | GI50 [48]: 19.7 µM | TGI [48]: 66.1 µM | GI50 [49]: 20.7 µM | TGI [49]: 50.7 µM | GI50 [50]: 27.9 µM | TGI [50]: 63.3 µM | GI50 [51]: 17.8 µM | TGI [51]: 36 µM | GI50 [52]: 29.8 µM | TGI [52]: 58 µM | GI50 [53]: 33.5 µM | TGI [53]: > 100 µM | GI50 [54]: 25.2 µM | TGI [54]: 65.9 µM | GI50 [55]: 20.7 µM | TGI [55]: 45.3 µM | GI50 [58]: 21.7 µM | TGI [58]: 44.4 µM | GI50 [56]: 14.5 µM | TGI [56]: 34.7 µM | GI50 [57]: 32.1 µM | TGI [57]: > 100 µM
